From patent US8268278B2, “Phosphorus-calcium-strontium compound and uses thereof in endodontic cements” (Centre National de la Recherche Scientifique, priority 2006, dated 2012) come the findings set out here.

This assay relates to polymicrobial inoculum taken from dental plaque. As to the kind of experiment: Inhibition of growth of a polymicrobial inoculum, diffusion in solid agar medium. Format: cell-based. The following applies: freshly prepared samples.

The structures appear in SMILES notation.

Description: The activity of these two cements was verified on freshly prepared samples of cement and samples prepared 13 days previously.

For the molecule `[Ca+2].[OH-].[OH-]` [Ca(OH)2, calcium hydroxide], the “RIZ (relative inhibition zone, compared with freshly prepared pure calcium hydroxide)” value came to 1.
